According to patent US12419950B2, “Saponin-based vaccine adjuvants” (THE UAB RESEARCH FOUNDATION, priority 2019, dated 2025):
Marks after values point to notes of the source that are not given here.

How the values were obtained:
[1] = system: antibody responses to chicken egg ovalbumin (OVA); experiment: Serum IgG, IgG1 and IgG2a anti-OVA response (ELISA) in mice immunized s.c. with OVA plus adjuvant; assay type: in vivo, BALB/c mice; parameters: IgG2a, serum IgG subclass anti-OVA activity at week 6: unit not given here; settings: for IgG1, serum IgG subclass anti-OVA activity at week 6 / IgG2a, serum IgG subclass anti-OVA activity at week 6: OVA 20 μg + adjuvant 100 μg s.c. days 0, 14, 28; for IgG1, serum IgG subclass anti-OVA activity at week 6 / IgG2a, serum IgG subclass anti-OVA activity at week 6 / IgG2a/IgG1, anti-OVA at week 6: mean ± SEM; for IgG2a/IgG1, anti-OVA at week 6: OVA 20 μg + adjuvant 100 μg s.c.; for IgG2a anti-OVA response in words / serum IgG anti-OVA response compared with OVA alone: study of saponins 3-6; for serum IgG anti-OVA response compared with OVA alone: weeks 2, 4, 6
Description: With pure natural saponins 3 and 4, and their derivatives 5 and 6 (FIG. 7) available, their ability to potentiate antibody responses to chicken egg ovalbumin (OVA) was evaluated. The known saponin adjuvant GPI-0100 was used as a positive control. Thus, groups of female BALB/c mice (8-10 weeks of age, six per group) were immunized by the subcutaneous route (s.c.) with OVA (20 μg) alone or with GPI-0100, saponins 3-6 at 100 μg dose on days 0, 14 and 28. Mice were weighed and serum samples were collected prior to each immunization and at 6 weeks after the initial immunization. The levels of serum IgG antibody activity to OVA were determined by enzyme-linked immunosorbent assay (ELISA), as shown in FIGS. 6A-6C, 9A-9C, and Table 1.
Their ability to potentiate antibody responses to chicken egg ovalbumin (OVA) was then evaluated. The known saponin adjuvant GPI-0100 was one of the positive controls. Also used was the recently reported MS derivative VSA-1 (4a) as the other positive control. Its high IgG1/IgG2a production and low toxicity are similar to that of GPI-0100. Thus, groups of female BALB/c mice (8-10 weeks of age, six per group) were immunized by the subcutaneous route (s.c.) with OVA (20 μg) alone or with GPI-0100, or a MS saponin derivative at 100 μg dose on days 0, 14 and 28. Mice were weighed and serum samples were collected prior to each immunization and at 2 weeks following the last immunization. The levels of serum antibody activity to OVA were determined by enzyme-linked immunosorbent assay (ELISA).
BALB/c mice used in this study were from Frederick Cancer Research (Fredrick, MD). To assess the adjuvant activity of the MS saponin-based immune adjuvants, groups of female mice (8-10 weeks of age; 6 mice per group) were immunized by the subcutaneous (s.c.) route with OVA (20 μg) or rHagB (35 μg) alone, or with antigen plus proper adjuvant such as GPI-0100 (100 μg) or a MS adjuvant (100 μg) on days 0, 14 and 28. Prior to each immunization and at two weeks post last immunization, mice were weighed and blood samples were collected from the lateral tail vein by using heparinized capillary pipettes. The serum was obtained after centrifugation and stored at −20° C. until assayed.
The levels of specific serum IgG and IgG subclasses against OVA or rHagB in each group were determined by an enzyme-linked immunosorbent assay (ELISA). Maxisorpmicrotiter plates (NUNC International, Roskilde, DK) were coated with rHagB (1 μg/ml), OVA (0.1 μg/ml), or with optimal amounts of goat anti-mouse IgG, IgG1 or IgG2a in borate buffer saline (BBS; 100 mM NaCl, 50 mM boric acid, 1.2 mM Na2B4O7, pH 8.2) at 4° C. overnight. Plates were blocked with 1% bovine serum albumin (BSA) and 0.02% sodium azide in BBS for 2 h at room temperature. Serial two-fold dilutions of serum samples were added in duplicate to the plates. To generate standard curves, serial dilutions of a mouse immunoglobulin reference serum (MP Biomedicals, Solon, OH) were added to two rows of wells in each plate that had been coated with the appropriate anti-mouse IgG or IgG subclass reagent. After incubation (overnight at 4° C.) and washing of the plates, horseradish peroxidase-conjugated goat anti-mouse IgG or IgG subclass antibody was added to appropriate wells. After 4 h of incubation at room temperature, plates were washed and developed by o-phenylenediamine substrate with hydrogen peroxide. Color development was recorded at 490 nm. The concentrations of antibodies were determined by interpolation on standard curves generated by using the mouse immunoglobulin reference serum and constructed by a computer program based on four-parameter logistic algorithms (Softmax/Molecular Devices Corp., Menlo Park, CA).
Statistical significance in antibody responses was evaluated by t tests (with unpaired, nonparametric and Mann-Whiteny test) using GraphPad Prism 8. Differences were considered significant at a P value<0.05.

serum Ab titers = settings: in vivo; cited from earlier work

Row | Compound | IgG1, serum IgG subclass anti-OVA activity at week 6 [1] [µg/mL] | IgG2a, serum IgG subclass anti-OVA activity at week 6 [1] | IgG2a/IgG1, anti-OVA at week 6 [1] | IgG2a anti-OVA response in words [1] | serum IgG anti-OVA response compared with OVA alone [1] | boost of serum Ab titers compared to vaccine alone (serum Ab titers)
1 | CC1OC(OC2C(O)C(C(=O)O)OC(OC3CCC4(C)C(CCC5(C)C4CC=C4C6CC(C)(C)CCC6(C(=O)OC6OC(C)C(O)C(O)C6OC6OC(C)C(OC7OCC(O)C(O)C7O)C(OC7OC(CO)C(O)C(OC8OCC(O)C(O)C8O)C7O)C6O)CCC45C)C3(C)C=O)C2OC2OC(CO)C(O)C(O)C2O)C(O)C(O)C1O (centres unmarked) [compound 3, Momordica saponin I] | 233 ± 74 | 0.2 | <0.001** | negligible IgG2a responses | did not show significant difference in IgG responses from the OVA group | –
2 | Momordica saponins II [compound 4] | 262 ± 37 | 0.1 | <0.001** | negligible IgG2a responses | significant difference in IgG responses from the OVA group at weeks 2 (P<0.01) and 4 (P<0.001) but not at week 6 | –
3 | monophosphoryl lipid A [MPL] | – | – | – | – | – | 10-20 fold
